How the values were obtained:
[1] = Plasma stability assay, rat plasma; format: in vitro ADME; conditions: for % compound remaining at last time-point, plasma: 2.0 μM, 120 min; for half-life at 2 μM: n ≥ 3, read-out: plasma t1/2
Method: 10 mM DMSO stock solution of test compound (39 or 50) was diluted 50-fold with DMSO/H2O (1:1) and incubated at 37 °C for 2 h with mouse or rat plasma added with 5% DMSO (preheated at 37 °C for 10 min). The final compound’s concentration was 2.0 μM. At each time point (0, 5, 15, 30, 60, and 120 min), 50 μL of incubation mixture was diluted with 150 μL cold CH3CN spiked with 200 nM of warfarin, as the internal standard, followed by centrifugation at 3.270g for 20 min. The supernatant was further diluted with H2O (1:1) and analyzed by LC–MS/MS on a Waters ACQUITY UPLC-MS TQD system consisting of a triple quadrupole detector (TQD) mass spectrometer equipped with an electrospray ionization interface and a photodiode array eλ detector (PDA) from Waters Inc. (Milford, MA, USA). Electrospray ionization was applied in positive mode. Compound-dependent parameters as MRM transitions and collision energy were developed for each compound. The analyses were run on an ACQUITY UPLC BEH C18 (50 × 2.1 mm ID, particle size 1.7 μm) with a VanGuard BEH C18 precolumn (5 × 2.1 mm ID, particle size 1.7 μm) at 40 °C, using H2O + 0.1% HCOOH (A) and CH3CN + 0.1% HCOOH (B) as the mobile phase. The percentage of the test compound remaining at each time point relative to t = 0 was calculated by the response factor on the basis of the internal standard peak area. The percentage of test compound versus time was plotted and fitted by GraphPad Prism (GraphPad Software, Version 5 for Windows, CA, USA, www.graphpad.com) to estimate the compound’s half-life (t1/2), which was reported as mean value along with the standard deviation (n = 3).

h-NAAA = target: T1, h-NAAA (Homo sapiens, UniProt Q02083); assay: Fluorogenic human-NAAA assay (h-NAAA, fluo.); format: biochemical; conditions: for LipE: LipE = pIC50 – c Log P (h-NAAA); for pIC50: Table S1; for pIC50 / IC50: h-NAAA (fluo.); for IC50: mean ± SD (n ≥ 3), n.a.: not active @50 μM (<10% inhibition)
T1 construct: made in house; host or cells: HEK-293 cells stably overexpressing human NAAA; enzyme-enriched (lysosomal) lysate
T1 sequence (Q02083 29-125 limits assumed): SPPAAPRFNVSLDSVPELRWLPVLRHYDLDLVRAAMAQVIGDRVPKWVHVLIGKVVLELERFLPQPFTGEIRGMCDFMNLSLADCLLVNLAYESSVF
T1 sequence (Q02083 126-359 limits assumed): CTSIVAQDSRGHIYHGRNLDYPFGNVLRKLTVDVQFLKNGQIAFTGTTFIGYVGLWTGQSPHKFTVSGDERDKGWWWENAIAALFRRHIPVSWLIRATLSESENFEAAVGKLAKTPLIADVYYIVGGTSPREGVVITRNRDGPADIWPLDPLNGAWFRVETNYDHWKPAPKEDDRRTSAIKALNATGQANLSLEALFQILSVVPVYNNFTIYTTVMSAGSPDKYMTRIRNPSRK
Method: Human recombinant proteins were obtained from HEK-293 stable overexpressing human NAAA, AC, and FAAH-1 cell lines, respectively. Cells were grown in Dulbecco’s modified Eagle medium (DMEM) containing 10% FBS, 1% glutamine, 1 mM sodium pyruvate, and 500 μg/mL geneticin (G418). To obtain a high-density cell proliferation, h-NAAA-HEK-293 cells were grown in BelloCell-500 bottle, a compact bioreactor. On the contrary, h-AC and h-FAAH-1-HEK-293 cells were grown in 150 mm dishes and scraped off with cold PBS 1× pH 7.4 at 80% confluence. Cell pellets were collected and stored at −80 °C until protein preparation.
HEK-293 cells stably transfected with the human NAAA or human AC coding sequences were used as the enzyme source. Cells were suspended in 20 mM Tris-HCl (pH 7.4) with 0.32 M sucrose, sonicated, and centrifuged at 800g for 30 min at 4 °C. Supernatants were then centrifuged at 12,000g for 30 min at 4 °C. Pellets were resuspended in PBS buffer (pH 7.4) and subjected to three freeze-thaw cycles at −80 °C. The suspension was finally centrifuged at 105,000g for 1 h at 4 °C, supernatants were collected, protein concentration was measured, and samples were aliquoted and stored at −80 °C until use.
The assay was run in 96-well microplates (Black OptiPlate-96 F; PerkinElmer, Massachusetts, USA), in a total reaction volume of 200 μL. h-NAAA protein preparation (4 μg) was preincubated for 30 min with various concentrations of test compounds or vehicle control (DMSO 5%) in 100 mM citrate/phosphate buffer (pH 4.5) containing 3.0 mM DTT, 0.1% NP40, 0.05% BSA, and 150 mM NaCl. The background (no activity) samples were prepared using assay buffer without h-NAAA and DMSO (5%). N-(4-methyl-2-oxo-chromen-7-yl)-hexadecanamide (PAMCA)[60] was used as a substrate (2 μM) and the reaction was carried out for 50 min at 37 °C. Fluorescence was measured with EnVision 2014 Multilabel Reader (PerkinElmer, Massachusetts, USA) using an excitation wavelength of 355 nm and an emission of 460 nm. IC50 values were calculated by non-linear regression analysis of log[concentration]/response curves generated with mean replicate values using a four-parameter Hill equation curve fitting with GraphPad Prism 5 (GraphPad Software Inc., CA, USA).

Compound	% compound remaining at last time-point, plasma [1]	half-life at 2 μM [1]	LipE (h-NAAA)	pIC50 (h-NAAA)	IC50 (h-NAAA)
CCCCc1ccc(O[C@H]2C[C@H]3CC[C@@H](C2)N3S(=O)(=O)c2c(C)n[nH]c2C)cc1 [Compound 39, (1R,3r,5S)-3-(4-Butylphenoxy)-8-((3,5-dimethyl-1H-pyrazol-4-yl)sulfonyl)-8-azabicyclo[3.2.1]octane]	93%	> 2 h	3.84	7.64	23 ± 4 nM
CCOCc1cnc(O[C@H]2C[C@H]3CC[C@@H](C2)N3S(=O)(=O)c2c(C)n[nH]c2C)cn1 [Compound 50, (1R,3r,5S)-8-((3,5-Dimethyl-1H-pyrazol-4-yl)sulfonyl)-3-((5-(ethoxymethyl)pyrazin-2-yl)oxy)-8-azabicyclo[3.2.1]octane]	93%	> 2 h	6.83	7.38	42 ± 2 nM

Reference: PMC8474119, “Discovery and SAR Evolution of Pyrazole Azabicyclo[3.2.1]octane Sulfonamides as a Novel Class of Non-Covalent N-Acylethanolamine-Hydrolyzing Acid Amidase (NAAA) Inhibitors for Oral Administration” (Journal of Medicinal Chemistry, 2021)
